Measured values from article PMC9504029, “Identification and Characterization of Novel Small-Molecule SMOX Inhibitors” (Medical Sciences, 2022).

How the values were obtained:
[1] = molecular target: T1, recombinant human MAO-A (Homo sapiens, UniProt P21397); test: MAO-Glo assay, MAO-A; assay type: biochemical; details: read-out: % Inhibition at 20 μM ± SD, MAO-A
T1 construct: purchased Sigma-Aldrich M7316-1VL
T1 sequence (P21397 1-527): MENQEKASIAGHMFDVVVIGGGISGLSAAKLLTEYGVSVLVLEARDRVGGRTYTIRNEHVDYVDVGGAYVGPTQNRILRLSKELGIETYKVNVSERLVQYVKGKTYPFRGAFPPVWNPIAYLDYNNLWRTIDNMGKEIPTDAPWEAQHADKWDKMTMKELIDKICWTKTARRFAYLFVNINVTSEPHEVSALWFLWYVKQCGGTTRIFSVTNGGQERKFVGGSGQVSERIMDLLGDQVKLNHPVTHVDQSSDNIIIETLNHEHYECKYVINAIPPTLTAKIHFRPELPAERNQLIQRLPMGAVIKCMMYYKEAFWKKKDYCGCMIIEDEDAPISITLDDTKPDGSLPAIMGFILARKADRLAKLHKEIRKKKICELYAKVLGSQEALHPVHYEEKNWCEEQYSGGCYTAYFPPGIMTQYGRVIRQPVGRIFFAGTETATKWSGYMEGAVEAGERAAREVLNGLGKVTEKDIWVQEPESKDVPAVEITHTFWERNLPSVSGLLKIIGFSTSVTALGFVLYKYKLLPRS
Method: (§1) To determine selectivity, the compounds were tested for activity against the related FAD-dependent amine oxidase enzymes LSD1, MAO-A, and MAO-B. LSD1 activity was assessed using a commercially available assay kit (#700120, Cayman Chemical, Ann Arbor, MI, USA), in which the enzyme activity was determined by the horseradish peroxidase-catalyzed oxidation of 10-acetyl-3,7-dihydroxyphenoxazine to the highly fluorescent resorufin in response to H2O2 production. Monoamine oxidase activity was determined using recombinant human MAO-A and MAO-B (M7316-1VL & M7441-1VL, Sigma-Aldrich, St. Louis, MO, USA) and a commercially available assay kit (#V1401, MAO-Glo, Promega, Madison, WI, USA), which utilizes the MAO-catalyzed oxidation of a luciferin derivative coupled with esterase activity to produce luminescence. Fluorescent and luminescent readout was obtained using a SpectraMax M5 plate reader (Molecular Devices) equipped with SOFTmax PRO 7.0.3 software. […] Values were reported as mean % inhibition ± SD of triplicate assay wells normalized to background activity and compared to the vehicle control.

[2] = Cytotoxicity analysis, MTS assay; assay type: cell-based; details: human, SH-SY5Y neuroblastoma cells, MTS, 12 h post treatment, read-out: LC50 (dose corresponding to 50% viability)
Method: (§2) SH-SY5Y neuroblastoma cells purchased from ATCC (Manassas, VA, USA) were cultured in Dulbecco’s modified Eagle medium (DMEM) without phenol red and supplemented with 10% heat inactivated human AB serum, 4 mM L-glutamine, and 1% penicillin/streptomycin. As the oxidation of spermine by various polyamine oxidases has been documented in cell culture containing ruminant serum, such as in fetal bovine serum (FBS) and horse serum, human AB serum was used to prevent assay interference. The cells were maintained in 5% CO2 humidified atmosphere at 37 °C. Cell media was replaced every 2 days and the cells were discarded after a maximum of 15 passages.
(§3) The SH-SY5Y neuroblastoma cells were plated in 96-well plates at a density of 30,000 cells/well and allowed to reach 80% confluence, followed by treatment with varying concentrations of inhibitor ranging from 0 to 10 mM for 12 h. Cell viability was assessed by standard MTS assay, in which MTS reagent was added to each well at a concentration of 0.33 mg/mL and incubated at 37 °C for 3 h. Viability was monitored and confirmed by a visual inspection of the cells. Absorbance was read at 490 nm and the absorbance values were normalized to background wells containing varying concentrations of inhibitor, cell media, and MTS reagent. Colorimetric readout was obtained using a SpectraMax M5 plate reader (Molecular Devices) equipped with SOFTmax PRO 7.0.3 software.

[3] = test system: SH-SY5Y neuroblastoma cells; test: Cytotoxicity analysis, MTS assay; assay type: cell-based; details: doses below 1 mM
Method: as §2, §3

[4] = molecular target: T2, recombinant human MAO-B (Homo sapiens, UniProt P27338); test: MAO-Glo assay, MAO-B; assay type: biochemical; details: read-out: % Inhibition at 20 μM ± SD, MAO-B
T2 construct: purchased Sigma-Aldrich M7441-1VL
T2 sequence (P27338 1-520): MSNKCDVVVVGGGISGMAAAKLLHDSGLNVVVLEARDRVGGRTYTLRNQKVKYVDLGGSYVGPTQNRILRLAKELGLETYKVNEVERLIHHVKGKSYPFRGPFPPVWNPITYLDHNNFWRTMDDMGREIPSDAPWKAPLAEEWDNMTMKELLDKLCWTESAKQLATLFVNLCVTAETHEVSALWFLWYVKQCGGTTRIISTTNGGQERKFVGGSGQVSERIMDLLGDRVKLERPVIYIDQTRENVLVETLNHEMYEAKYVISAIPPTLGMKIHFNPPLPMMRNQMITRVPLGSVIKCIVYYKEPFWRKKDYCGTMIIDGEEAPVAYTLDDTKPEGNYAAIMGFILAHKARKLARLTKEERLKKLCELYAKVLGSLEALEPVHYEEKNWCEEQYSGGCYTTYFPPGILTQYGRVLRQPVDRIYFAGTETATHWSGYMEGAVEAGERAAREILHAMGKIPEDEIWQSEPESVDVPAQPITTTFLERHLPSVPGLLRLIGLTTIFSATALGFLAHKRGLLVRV
Method: as §1

[5] = molecular target: T3, SMOX (Homo sapiens, UniProt Q9NWM0); test: SMOX enzyme activity, HRP-luminol chemiluminescence assay; assay type: biochemical; details: 2 mM spermine
T3 construct: using 0.3 µg/mL of purified SMOX enzyme and 2 mM of spermine substrate
T3 sequence (Q9NWM0 whole entry): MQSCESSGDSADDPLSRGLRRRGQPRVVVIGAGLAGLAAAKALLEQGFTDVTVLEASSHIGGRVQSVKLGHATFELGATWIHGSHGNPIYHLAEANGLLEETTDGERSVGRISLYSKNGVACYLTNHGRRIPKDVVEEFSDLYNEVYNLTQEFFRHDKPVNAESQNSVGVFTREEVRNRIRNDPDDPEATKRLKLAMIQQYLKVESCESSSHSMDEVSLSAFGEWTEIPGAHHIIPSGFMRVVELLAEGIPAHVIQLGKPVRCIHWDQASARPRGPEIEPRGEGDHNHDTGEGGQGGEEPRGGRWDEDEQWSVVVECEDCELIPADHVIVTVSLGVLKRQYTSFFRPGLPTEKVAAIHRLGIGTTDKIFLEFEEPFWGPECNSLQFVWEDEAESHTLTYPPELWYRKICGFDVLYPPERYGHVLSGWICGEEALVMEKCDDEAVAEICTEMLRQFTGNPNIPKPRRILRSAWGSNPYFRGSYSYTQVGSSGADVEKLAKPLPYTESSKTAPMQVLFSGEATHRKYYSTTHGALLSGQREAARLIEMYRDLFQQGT
Method: As the catabolism of spermine by SMOX results in the stoichiometric production of H2O2, enzyme activity was quantified by chemiluminescence generated by the horseradish peroxidase-catalyzed oxidation of luminol in 96-well plates (Costar #3912; white, flat bottom), as previously described. All assays were performed in 0.083 M glycine buffer at a pH of 8 using 0.3 µg/mL of purified SMOX enzyme and 2 mM of spermine substrate. Phosphate buffer was not used to prevent the formation of polyamine–phosphate complexes. Enzyme reactions were initiated by the addition of SMOX and HRP to all other assay components; inhibitors were not pre-incubated with enzyme. Triplicate determinations were obtained for each measurement by recording the luminescence (AUC) over 60 s. Hit compounds were then confirmed by monitoring the assay over 600 s. Each triplicate assay point contained a 4th control well to monitor and normalize the data with regards to luminescent decay over time. The compounds were initially screened for activity at a concentration of 20 µM. […] The known SMOX inhibitor, MDL-72527, was used as a control. The hit compounds were then characterized by IC50 and kinetic analyses. Percent inhibition values are reported as triplicate mean % SMOX inhibition ± SD compared to the vehicle control. IC50 values were calculated in GraphPad Prism 9.3 software (Graph-Pad, San Diego, California) using a non-linear regression analysis ([Inhibitor] vs. normalized response—variable slope). Data for all enzyme assays were generated using a SpectraMax M5 plate reader (Molecular Devices) equipped with SOFTmax PRO 7.0.3 software.

Cc1cc([C@H](O)CNCCCNC(=N)N)cc(C)c1O [Compound 6]
inhibition at 20 µM [1]: -6 ± 2.1% | CC50 at 12 h [2]: 5800 µM | Toxicity after 12-h exposure [3]: did not produce significant toxicity | inhibition at 20 µM [4]: -13.7 ± 3.8% | inhibition at 20 µM ([5]; 20 µM compound, no pre-incubation, triplicate, read-out: % Inhibition at 20 μM ± SD, SMOX): 99.7 ± 0.1% | IC50 ([5]; AUC over 60 s, pH 8): 0.54 µM
